Columns and labels:
[1] = system: FU-OV-1 (Ovarian Carcinoma); experiment: Bliss excess, mean over the matrix (fraction); higher = more synergy
Summary of the method: (§1)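 After 24 hours at 37°C and 5% CO2 in 1536-well plates, cells in DMEM/F12 or RPMI plus 10% FBS received two-drug dose matrices for 72 hours. Viability came from CellTiter-Glo 2.0 luminescence and was scaled as inhibition, anchored at 0 by vehicle wells and at 1 by blank wells. Combination Emax is taken as the second-highest inhibition in the matrix, and Bliss excess as the observed combination effect less EA + EB − EA·EB, with EA and EB the single-agent effects.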

[2] = system: TC-YIK (Other Solid Carcinomas); experiment: as above
Summary of the method: as §1

[3] = system: D-283MED (Other Solid Carcinomas); experiment: combination Emax (second highest fraction inhibited in the dose matrix, 72 h); higher = more inhibition; extreme values may be limits of the assay
Summary of the method: as §1

D-392MG (Glioblastoma) = experiment: as above
Summary of the method: as §1

[4] = system: DOK (Oral Cavity Carcinoma); experiment: as above
Summary of the method: as §1

[5] = system: FU-OV-1 (Ovarian Carcinoma); experiment: as above
Summary of the method: as §1

[6] = system: HCC-827 (Lung Adenocarcinoma); experiment: as above
Summary of the method: as §1

[7] = system: HCC1143 (Breast Carcinoma); experiment: as above
Summary of the method: as §1

[8] = system: HCT-116 (Colorectal Carcinoma); experiment: as above
Summary of the method: as §1

[9] = system: HLE (Hepatocellular Carcinoma); experiment: as above
Summary of the method: as §1

[10] = system: KG-1 (Acute Myeloid Leukemia); experiment: as above
Summary of the method: as §1

[11] = system: MEG-01 (Chronic Myelogenous Leukemia); experiment: as above
Summary of the method: as §1

SK-MEL-1 (Melanoma) = experiment: as above
Summary of the method: as §1

[12] = system: SK-UT-1 (Other Solid Carcinomas); experiment: as above
Summary of the method: as §1

[13] = system: SW948 (Colorectal Carcinoma); experiment: as above
Summary of the method: as §1

[14] = system: TC-YIK (Other Solid Carcinomas); experiment: as above
Summary of the method: as §1
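Wherever Bliss excess, mean over the matrix is given: after 72 h of two-drug dosing.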

Compound | Bliss excess [1] | Bliss excess [2] | combination Emax [3] | combination Emax (D-392MG (Glioblastoma)) | combination Emax [4] | combination Emax [5] | combination Emax [6] | combination Emax [7] | combination Emax [8] | combination Emax [9] | combination Emax [10] | combination Emax [11] | combination Emax (SK-MEL-1 (Melanoma)) | combination Emax [12] | combination Emax [13] | combination Emax [14]
COc1cc2ncnc(Nc3ccc(F)c(Cl)c3)c2cc1OCCCN1CCOCC1 [Gefitinib] + CC(C)n1c(=O)n(C)c2cnc3cc(F)c(-c4ccc(OCCCN5CCCCC5)nc4)cc3c21 [AZD1390] (first compound max 10 µM, 7x7, partner max 0.3 µM) | -0.0717 | -0.046 | 0.425 | 0.084 | 0.382 | 0.296 | 0.766 | 0.253 | 0.133 | 0.101 | 0.182 | 0.11 | 0.43 | 0.0993 | 0.162 | 0.188
NC1(C(=O)N[C@@H](CCO)c2ccc(Cl)cc2)CCN(c2ncnc3[nH]ccc23)CC1 [Capivasertib] + CC(C)n1c(=O)n(C)c2cnc3cc(F)c(-c4ccc(OCCCN5CCCCC5)nc4)cc3c21 [AZD1390] (first compound max 10 µM, 7x7, partner max 0.3 µM) | -0.0541 | -0.0346 | 0.475 | 0.228 | 0.5 | 0.253 | 0.322 | 0.174 | 0.373 | 0.194 | 0.241 | 0.256 | 0.226 | 0.354 | 0.575 | 0.17

Source: the supplement of paper PMC11061612
